One series deals with IL-6 production. The experiment in a line: Mouse IL-6 ELISA of supernatant of LPS-stimulated Raw 264.7 cells. Format: cell-based. The settings on record: LPS 1 μg/ml 24 h; for mIL-6 in supernatant (ELISA): Fig 4D; for Effect on LPS-induced IL-6 production (ELISA): 25 and 50 μM. As to the method: Fig 4 Modified lead NBD mimetics inhibit TNF-α- and LPS-induced NF-κB activation by disrupting the association between NEMO and IKKβ. (A) Structures of top NBD mimetics. (B) Measurement of NF-κB activation in response to TNF-α by using Dual-luciferase reporter assays. HEK293 cells cotransfected with NF-κB luciferase reporter and SV40-Renilla plasmids were pretreated with DMSO or listed small molecules at 0, 25, 50, 100, and 150 μM for 30 min, followed by the induction of TNF-α for 3 h. Data shown are representative of 2–3 independent experiments. […] Raw 264.7 cells were pretreated with indicated drugs for 30 min and then stimulated with 1 μg/ml of LPS for 2 h. Cells were then harvested for RNA extraction and qRT-PCR analysis. Drug concentrations used are as follows: IKKi VII (2 μM), 8K-NBD peptide (200 μM), SR12343 (50 μM), SR12460 (50 μM), SR12454 (50 μM), and SR11481 (50 μM). Data are representative of 2 independent experiments. […] Raw 264.7 cells pretreated with DMSO or drugs at indicated concentrations were exposed to 1 μg/ml of LPS for 24 h, and supernatant was collected for ELISA analysis of mouse IL-6. *P < 0.05; **P < 0.01. Underlying data can be found in S1 Data. HEK293, human embryonic kidney 293 cells; IKK, IκB kinase; IL-6, interleukin 6; LPS, lipopolysaccharide; NBD, NEMO-binding domain; n.d., nondetectable; NEMO, NF-κB essential modulator; NF-κB, nuclear factor κB; qRT-PCR, […] real-time polymerase chain reaction; TNF-α; tumor necrosis factor α. TEXT PRINTED IN THE PICTURE: (D) ikki VII: mIL-6 (ng/ml): n.d. | (D) SR12460: mIL-6 (ng/ml): n.d. (50μM) | (D) SR12454: mIL-6 (ng/ml): n.d. (50μM) DOUBTS OF THE COPYIST ABOUT THIS PICTURE: Panel D: the only printed results are the three "n.d." labels. They stand in place of bars and are assigned to ikki VII, SR12460 50μM and SR12454 50μM by their position on the axis. All other results are shown only as bars, with no printed numbers.
To confirm the qRT-PCR results, the levels of IL-6 production in Raw 264.7 cells activated by LPS were analyzed by ELISA.
Raw 264.7 cells were grown in 96-well plates and pretreated with vehicle, IKKi VII (2 μM), and small molecules (at indicated concentration) for 1 h, followed by the stimulation with 1 μg/ml of LPS. Supernatant was collected 24 h later for ELISA analysis. IL-6 concentration was measured using a mouse IL-6 ELISA kit (BD) according to the manufacturer’s instructions.

Series [1] is described as follows: Mouse PK, i.v. and oral gavage. Format: in vivo. The settings on record: for bioavailability: PO 10mg/Kg versus IV, Avg. As to the method:
Supplementary file pbio.2004663.s002.tif: S1 Fig IC50 and the complete pharmacokinetic profiles of NBD mimetics. (A) Dose-dependent curve of NBD mimetics ranging from 0 to 150 μM was determined by NF-κB luciferase assays in HEK293 cells. (B) Complete pharmacokinetic profiles of SR12460 and SR12343 administered i.v. or by oral gavage in mice. Underlying data can be found in S1 Data. AUC%Extrap, percentage of the area under the curve extrapolated to infinity from Tlast to infinity; AUCINF_obs, area under the curve from 0 to infinity; AUClast, area under the curve from the time of dosing to the last measurable concentration; Cmax, maximum observed concentration; Clobs, total serum clearance; HEK, human embryonic kidney 293 cells; IC50, half maximal inhibitory concentration; NBD, NEMO-binding domain; NEMO, NF-κB essential modulator; NF-κB, nuclear factor κB; T1/2, half-life; Tmax, time of maximum concentration. (TIF) Click here for additional data file.

Setting [2] is: PO 10mg/Kg, single mice and Avg., 10 mg/kg.
[3] abbreviates: PO 10mg/Kg, single mice and Avg., 10 mg/kg, mean.
Where [4] appears, read: mouse, serum, po, 10 mg/kg, PO 10mg/Kg, single mice and Avg.
The mark [5] stands for this setting: IV 2mg/Kg, single mice and Avg., 2 mg/kg.
[6] abbreviates: IV 2mg/Kg, single mice and Avg., 2 mg/kg, mean.

Several values for one entry are separate records, joined by “and”; a condition that tells them apart may be missing. Equal values may be shown once. Read-outs that look alike come from different tables or passages of the source.

Turning to `O=C(CNc1ccc(Cl)cn1)NCCc1cccc(Br)c1` [SR12343], the “mIL-6 in supernatant (ELISA)” value in the series on IL-6 production (25 μM) was 2.6915 ng/mL and 2.4446 ng/mL and 1.843 ng/mL. Besides, the “Effect on LPS-induced IL-6 production (ELISA)” value in the series on IL-6 production was “inhibited IL-6 production, but was not as effective as SR12460 and SR12454”. Besides, in series [1] (IV 1mg/Kg, single mice and Avg., 1 mg/kg), the “AUC %Extrap” value is 0.68% and 0.92% and 0.30%. The “AUC %Extrap” value in series [1] (IV 1mg/Kg, single mice and Avg., 1 mg/kg, mean) was 0.63%. In series [1] (setting [2]), the AUC %Extrap was 0.51% and 0.40% and 0.32%; the AUCINF_obs is 11013 ng·min/mL and 20121 ng·min/mL; the Cl_obs is 862.00 mL/min/kg and 908.01 mL/min/kg and 497.00 mL/min/kg; the T1/2 was 0.50 h. In series [1] (setting [3]), this compound came in with an AUC %Extrap of 0.41%, an AUCINF_obs of 14245 ng·min/mL, a Cl_obs of 755.67 mL/min/kg and a T1/2 of 0.53 h. Besides, the “Oral activity (comparison)” value in series [1] (S1B Fig) is given as “not as orally active as SR123460”. Besides, the Tmax in series [1] (mouse, serum, iv, 1 mg/kg, IV 1mg/Kg, single mice and Avg., read-out: Tmax) worked out at 0.08 h. In addition, in series [1] (setting [4]), the AUC(0-t) was 192 ng·h/mL and 0.52 µM·h; the Cmax is 523 ng/mL and 1.43 µM; the half-life was 0.58 h. Also, in series [1] (mouse, serum, po, 10 mg/kg, PO 10mg/Kg, single mice and Avg., read-out: AUCINF_obs (converted)), the AUC(0-inf) is 193 ng·h/mL. In series [1] (mouse, serum), this compound displayed a bioavailability of 0.86%.
On to `O=C(CNCCc1cc(F)cc(F)c1)Nc1ccc(Cl)cn1` [SR12460], for which the “mIL-6 in supernatant (ELISA)” value was 1.4838 ng/mL and 1.2369 ng/mL and 1.4569 ng/mL in the series on IL-6 production (25 μM); 0 ng/mL in the series with IL-6 production (50 μM). For the same compound, the “Effect on LPS-induced IL-6 production (ELISA)” value in the series with IL-6 production was “inhibit IL-6 secretion significantly in a dose-dependent manner”. For the same compound, the “AUC %Extrap” value was 17.95% and 11.52% in series [1] (setting [5]); 14.74% in series [1] (setting [6]). The MRTINF_obs in series [1] (setting [5]) came out at 3.50 h; in series [1] (setting [6]), 3.99 h. The T1/2 is 2.57 h in series [1] (setting [5]); 2.99 h in series [1] (setting [6]); 1.99 h and 1.74 h in series [1] (setting [2]); 2.35 h in series [1] (setting [3]). The Vss_obs was 0.17 L/kg and 0.30 L/kg in series [1] (setting [5]); 0.23 L/kg in series [1] (setting [6]). In addition, the Tmax in series [1] (setting [2]) is 1.00 h; in series [1] (setting [3]), 0.67 h; in series [1] (mouse, serum, po, 10 mg/kg, PO 10mg/Kg, single mice and Avg., read-out: Tmax), 0.5 h. The half-life was 3.42 h in series [1] (mouse, serum, iv, 2 mg/kg, IV 2mg/Kg, single mice and Avg.); 3.31 h in series [1] (setting [4]). For the same compound, the MRT inf in series [1] (mouse, serum, iv, 2 mg/kg, IV 2mg/Kg, single mice and Avg., read-out: MRTINF_obs) stood at 4.49 h. Also, the AUC(0-t) in series [1] (setting [4]) is 47600 ng·h/mL and 146 µM·h. Besides, the peak concentration (Cmax) in series [1] (setting [4]) was 11200 ng/mL and 34.5 µM. The bioavailability in series [1] (mouse, serum) was 20.1%.

As usually defined, the Tmax is the time from dosing to the highest level. What is called AUC(0-t) is exposure summed from dosing to a finite time, without extrapolation to infinity. Low readings indicate less exposure, high ones more exposure. For orientation: Cmax means the peak of the concentration-time curve. One may read the half-life as the time needed for the level to fall by half in the phase considered. Higher therefore signals slow loss. For orientation: bioavailability means the share of a dose that reaches the circulation, judged against a reference dose that is usually intravenous. Read a high bioavailability as good availability.
